ChEMBL document CHEMBL1201862, “PubChem BioAssay data set” (2004)
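Five concentrations, 48 hours, 96-well plates. The concentration for 50% growth inhibition is given as GI50.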 The source made the active and inactive calls. Rule as the data show it: active = GI50 up to about 1.1 µM and inactive = higher.

Assays:
Test in all cases: DTP human tumour cell line panel, 48 h
MDA-MB-435 = tested on: MDA-MB-435
MDA-MB-231 = tested on: MDA-MB-231
A498 = tested on: A498
NCI-H460 = tested on: NCI-H460
UO-31 = tested on: UO-31
UACC-257 = tested on: UACC-257
EKVX = tested on: EKVX
K562 = tested on: K562
U-251 = tested on: U-251
MOLT-4 = tested on: MOLT-4
SF-268 = tested on: SF-268
TK-10 = tested on: TK-10
SN12C = tested on: SN12C
HCT-15 = tested on: HCT-15
NCI-H23 = tested on: NCI-H23
HCT-116 = tested on: HCT-116
NCI-H522 = tested on: NCI-H522
PC-3 = tested on: PC-3
COLO 205 = tested on: COLO 205
SNB-75 = tested on: SNB-75
SR = tested on: SR
CAKI-1 = tested on: CAKI-1
SF-539 = tested on: SF-539
SF-295 = tested on: SF-295
MDA-N = tested on: MDA-N
KM12 = tested on: KM12
SK-OV-3 = tested on: SK-OV-3
Hs-578T = tested on: Hs-578T
NCI-H226 = tested on: NCI-H226
HT-29 = tested on: HT-29
T47D = tested on: T47D
RXF 393 = tested on: RXF 393
SK-MEL-28 = tested on: SK-MEL-28
CCRF-CEM = tested on: CCRF-CEM
OVCAR-3 = tested on: OVCAR-3
SK-MEL-5 = tested on: SK-MEL-5
OVCAR-8 = tested on: OVCAR-8
HCC 2998 = tested on: HCC 2998
NCI/ADR-RES = tested on: NCI/ADR-RES
Malme-3M = tested on: Malme-3M
OVCAR-4 = tested on: OVCAR-4
A549 = tested on: A549
IGROV-1 = tested on: IGROV-1
HOP-92 = tested on: HOP-92
HL-60 = tested on: HL-60
UACC-62 = tested on: UACC-62
LOX IMVI = tested on: LOX IMVI
SK-MEL-2 = tested on: SK-MEL-2
SNB-19 = tested on: SNB-19
M14 = tested on: M14
OVCAR-5 = tested on: OVCAR-5
786-0 = tested on: 786-0
RPMI-8226 = tested on: RPMI-8226
ACHN = tested on: ACHN
SW-620 = tested on: SW-620
MCF7 = tested on: MCF7
BT-549 = tested on: BT-549
DU-145 = tested on: DU-145

C=C1C(C(O)C[C@H](C)C2O[C@@]3(CCCCO3)CCC2C)O[C@@H]2CCC3(CCC(/C=C/[C@@H](C)C4CC(C)=CC5(O4)O[C@H](C[C@](C)(O)C(=O)O)CCC5O)O3)OC2[C@@H]1O (stereo partly drawn)
GI50 (MDA-MB-435): 0.75 nM (active)
GI50 (MDA-MB-231): 4.11 nM (active)
GI50 (A498): 5.64 nM (active)
GI50 (NCI-H460): 4.08 nM (active)
GI50 (UO-31): 52.7 nM (active)
GI50 (UACC-257): 8.39 nM (active)
GI50 (EKVX): 6.14 nM (active)
GI50 (K562): 4.29 nM (active)
GI50 (U-251): 1.05 nM (active)
GI50 (MOLT-4): 12.2 nM (active)
GI50 (SF-268): 3.35 nM (active)
GI50 (TK-10): 16.2 nM (active)
GI50 (SN12C): 12.7 nM (active)
GI50 (HCT-15): < 16.3 nM
GI50 (NCI-H23): 8.19 nM (active)
GI50 (HCT-116): 3.81 nM (active)
GI50 (NCI-H522): 1.82 nM (active)
GI50 (PC-3): 5.45 nM (active)
GI50 (COLO 205): 3.76 nM (active)
GI50 (SNB-75): 0.608 nM (active)
GI50 (SR): 9.64 nM (active)
GI50 (CAKI-1): 10.7 nM (active)
GI50 (SF-539): 2.54 nM (active)
GI50 (SF-295): 5.78 nM (active)
GI50 (MDA-N): 1.17 nM (active)
GI50 (KM12): 3.74 nM (active)
GI50 (SK-OV-3): 9.55 nM (active)
GI50 (Hs-578T): 3.18 nM (active)
GI50 (NCI-H226): 4.05 nM (active)
GI50 (HT-29): 8.28 nM (active)
GI50 (T47D): 32.6 nM (active)
GI50 (RXF 393): 18 nM (active)
GI50 (SK-MEL-28): 2.27 nM (active)
GI50 (CCRF-CEM): 8.26 nM (active)
GI50 (OVCAR-3): 2.39 nM (active)
GI50 (SK-MEL-5): 3.08 nM (active)
GI50 (OVCAR-8): 6.93 nM (active)
GI50 (HCC 2998): 1.71 nM (active)
GI50 (NCI/ADR-RES): 128 nM (active)
GI50 (Malme-3M): 0.764 nM (active)
GI50 (OVCAR-4): 28.6 nM (active)
GI50 (A549): 26.7 nM (active)
GI50 (IGROV-1): 21.7 nM (active)
GI50 (HOP-92): 3.75 nM (active)
GI50 (HL-60): 4.08 nM (active)
GI50 (UACC-62): 3.47 nM (active)
GI50 (LOX IMVI): 4 nM (active)
GI50 (SK-MEL-2): 2.53 nM (active)
GI50 (SNB-19): 2.7 nM (active)
GI50 (M14): 1.76 nM (active)
GI50 (OVCAR-5): 8.26 nM (active)
GI50 (786-0): 9.12 nM (active)
GI50 (RPMI-8226): 3.15 nM (active)
GI50 (ACHN): 19.1 nM (active)
GI50 (SW-620): 13.4 nM (active)
GI50 (MCF7): 6.5 nM (active)
GI50 (BT-549): 6.81 nM (active)
GI50 (DU-145): 9.08 nM (active)
